{
  "source": "patent US20220370473A1",
  "about": "“USE OF A BENZODIAZEPINE DERIVATIVE AND METHOD OF TREATMENT OF TRAUMATIC BRAIN INJURY” (CENTRO DE INVESTIGACION Y […] MEDICAMENTOS (CIDEM), priority 2019, published 2022)",
  "type_in_all_cases": "in vivo, Male Wistar rats",
  "key": {"GFAP": {"system": "GFAP", "experiment": "Western blotting of GFAP in brain tissue", "settings": "cortex and hippocampus; all groups; FIGS. 11 and 12", "procedure": "(§1) Male Wistar rats (200-250 g), with an average age of 60 days were used, conditioned in boxes with food and water at will. Procedures were performed pursuant to the rules of the Animal Ethics and Welfare Committee UFSM (9426190418).\n(§2) TBI was induced through the weight-drop model (MANNIX, R. et al. Chronic Gliosis and Behavioral Deficits in Mice Following Repetitive Mild Traumatic Brain Injury. Journal of Neurosurgery. 2014) A 54 g weight was used released from a 100 cm height freely falling on the animals head. […]\n(§3) The Western blot test was performed according to Gerbatin et al (2017) with some adjustments (GERBATIN, R. D. R. et al. Guanosine Protects Against Traumatic Brain Injury-Induced Functional Impairments and Neuronal Loss by Modulating Excitotoxicity, Mitochondrial Dysfunction, and Inflammation. Molecular Neurobiology. 54(10):7585-7596. 2017.). […] The protein concentration of each sample was determined by the bicinchonininc acid protein assay (Thermo Fisher Scientific). […]\n(§4) The mouse anti-β-actin antibody (1: 10,000, Santa Cruz Biotechnology, Santa Cruz, Calif., EE. UU.) was dyed as an additional control to the protein load. […] Then the bands were quantified using the Image Lab software (Bio-Rad)."}, "TBI-induced rats [1]": {"system": "TBI-induced rats", "experiment": "Open field test after weight-drop TBI", "settings": "TBI group vs control and TBI+JM-20 group, p<0.05; FIG. 3", "procedure": "as §1\n(§5) TBI was induced through the weight-drop model (MANNIX, R. et al. Chronic Gliosis and Behavioral Deficits in Mice Following Repetitive Mild Traumatic Brain Injury. Journal of Neurosurgery. 2014) A 54 g weight was used released from a 100 cm height freely falling on the animals head. Animals were suspended on aluminum foil, with small cuts to ensure it would break with the impact of the weight allowing for the sudden acceleration of the movement, thus tearing the aluminum foil and falling over a sponge. TBI-induced animals were previously anesthetized with 2% isoflurane. In addition, topical lidocaine was applied to the animals' head to minimize posttraumatic pain (MYCHASIUK, R. et al. A Novel Model of Mild Traumatic Brain Injury for Juvenile Rats. Journal of Visualized Experiments. 2014)\nAnimals were placed in the central area of an open field (56 cm diameter) that had its surface divided into equal parts. The duration of the test was 300 seconds. The number of times animals walked around the quadrants, the number of their exploratory responses (rearings) and their immobility time were analyzed."}, "TBI": {"system": "TBI", "experiment": "Overall assessment in animal models after a TBI", "settings": "motor performance; cerebral edema; astrocyte reactivity; microglial activation; pro-survival pathway activation", "procedure": "as §1, §5"}, "p-Akt": {"system": "p-Akt", "experiment": "Western blotting of p-Akt in brain tissue", "settings": "TBI group vs control and TBI+JM-20 groups, p<0.05, FIG. 8", "procedure": "as §1, §2, §3, §4"}, "TBI-induced rats [2]": {"system": "TBI-induced rats", "experiment": "Rotarod test after weight-drop TBI", "settings": "TBI group vs control, JM-20 and TBI+JM-20 groups, p<0.05; FIG. 1", "procedure": "as §1, §5\nAnimals were trained for 5 minutes before the TBI so they could adapt to the apparatus. The testing session comprised 5 trials and concluded when animals fell off the rotor (3.7 cm diameter, velocity 25-30 rpm) or after the cutoff time, i.e. 300 s. (Whishaw et al., 2003). The first fall latency was analyzed."}, "TBI-induced rats [3]": {"system": "TBI-induced rats", "experiment": "Cerebral edema (brain water content, wet-dry method)", "settings": "24 h after TBI; TBI group vs control and TBI+JM-20 groups, p<0.05; FIG. 6", "procedure": "as §1\n(§6) TBI was induced through the weight-drop model (MANNIX, R. et al. Chronic Gliosis and Behavioral Deficits in Mice Following Repetitive Mild Traumatic Brain Injury. Journal of Neurosurgery. 2014) A 54 g weight was used released from a 100 cm height freely falling on the animals head. Animals were suspended on aluminum foil, with small cuts to ensure it would break with the impact of the weight allowing for the sudden acceleration of the movement, thus tearing the aluminum foil and falling over a sponge. TBI-induced animals were previously anesthetized with 2% isoflurane. […]\nThe cerebral edema was determined measuring the water content of the brain using the wet-dry method described by Chen et al (2014) (CHEN, W. et al. Neuroprotective effect of allicin against traumatic brain injury via Akt/endothelial nitric oxide synthase pathway-mediated anti-inflammatory and anti-oxidative activities. Neurochemistry International. 68:28-37. 2014) Twenty-four hours after the TBI, the animals were sacrificed and their brains were rapidly removed and weighed to determine their wet weight. […] The water content of the brain was calculated using the following formula: […]"}, "iba-1": {"system": "iba-1", "experiment": "Western blotting of iba-1 in brain tissue", "settings": "TBI group vs control, JM-20 and TBI+JM-20, p<0.01, FIG. 9", "procedure": "as §1, §2, §3, §4"}, "TBI-induced rats [4]": {"system": "TBI-induced rats", "experiment": "Beam-walking test after weight-drop TBI", "settings": "TBI group vs control and JM-20 (alone) groups, p<0.05; FIG. 5", "procedure": "as §1, §6\nThe beam-walking test (HAUSSER, N. et al. Detecting Behavioral Deficits in Rats After Traumatic Brain Injury. J. Vis. Exp. (131), e56044, doi:10.3791/56044. 2018.) consists in animals walking on a hanging wooden beam (2.5 cm wide and 100 cm long) to reach a black wooden box placed at the end of the apparatus. […] Three attempts were analyzed. […] The day of the test, the times of each attempt were recorded and their values were averaged."}},
  "data": [
    {"smiles": "CCOC(=O)C1=C(C)NC2=C(C=Nc3ccccc3N2)C1c1ccccc1[N+](=O)[O-]", "note": "(centres unmarked) [JM-20, 3-ethoxycarbonyl-2-methyl-4-(2-nitrophenyl)-4,11-dihydro-1H-pyridol[2,3-b][1,5]benzodiazepine]", "values": [
      {"measurement": "GFAP expression", "setting": "GFAP", "result": "showed no changes in any of the groups"},
      {"measurement": "number of rearings during the open field test", "setting": "TBI-induced rats [1]", "result": "a higher number of rearings was observed in comparison with the control and the TBI+JM-20 group"},
      {"measurement": "effect on TBI adverse effects (behavioral, morphological and biochemical changes)", "setting": "TBI", "result": "effective in reducing and, in some cases, reversing TBI adverse effects"},
      {"measurement": "p-Akt expression in hippocampus", "setting": "p-Akt", "result": "decreased in TBI groups"},
      {"measurement": "first fall latency time on the rotarod test", "setting": "TBI-induced rats [2]", "result": "animals who suffered a TBI showed a reduction of the first fall latency time on the rotarod test in contrast with the other groups"},
      {"measurement": "brain water content", "setting": "TBI-induced rats [3]", "result": "increased in the TBI group in contrast with the control and TBI +JM-20 groups"},
      {"measurement": "iba-1 expression in cerebral cortex", "setting": "iba-1", "result": "increased in TBI groups, both in the cerebral cortex in comparison with all the groups"},
      {"measurement": "time to complete the beam-walk test", "setting": "TBI-induced rats [4]", "result": "rats in the TBI group took longer to complete the course than the control and JM-20 groups"}
    ]}
  ]
}
